This passage reports IC50 and selectivity ratio results from ChEMBL document CHEMBL1275325, “QSAR guided synthesis of simplified antiplasmodial analogs of naphthylisoquinoline alkaloids” (Eur J Med Chem, 2010).

In general, IC50 refers to the concentration at which inhibition is half-maximal.

Structures are written as SMILES.

Series [1] has as its system Trypanosoma brucei brucei. As to the kind of experiment: Antitrypanosomal activity against Trypanosoma brucei brucei. The class given is functional, organism-based. The note with it: Trypanosoma brucei; read-out: IC50.
Series [2] can be described thus: Selectivity index, ratio of IC50 for rat L6 cells to IC50 for Plasmodium falciparum K1. The class given is toxicity, cell-based. The settings on record: read-out: Ratio IC50.
Series [3] has as its system Leishmania major. As to the kind of experiment: Antileishmanial activity against promastigotes of Leishmania major. In kind it is functional, organism-based. The settings on record: Leishmania major; read-out: IC50.
Series [4] has as its system Trypanosoma cruzi. In words: Antitrypanosomal activity against clone C4 Trypanosoma cruzi Tulahuen expressing LacZ. In kind it is functional, organism-based. The note with it: Trypanosoma cruzi, Tulahuen; read-out: IC50.
In series [5] the test system is L6. As to the kind of experiment: Cytotoxicity against rat L6 cells. The class given is cell-based.
Series [6] concerns Plasmodium falciparum. As to the kind of experiment: Antiplasmodial activity against Plasmodium falciparum K1. In kind it is functional, organism-based.
Series [7] has as its system Leishmania donovani. As to the kind of experiment: Antileishmanial activity against axenic amastigotes of Leishmania donovani. The class given is functional, organism-based. The note with it: Leishmania donovani; read-out: IC50.
The test system of series [8] is Trypanosoma brucei rhodesiense. In words: Antitrypanosomal activity against Trypanosoma brucei rhodesiense STIB900. The settings on record: Trypanosoma brucei, STIB900; read-out: IC50. The class given is functional, organism-based.

Take `CC1=N[C@H](C)Cc2c(-c3ccc(C(F)(F)F)cc3)ccc(O)c21`: the IC50 in series [1] is 15.9 µM; in series [3], more than 100 µM; in series [4] it was 19.2 µM; in series [5], 96.8 µM; in series [6], 460 nM; in series [7] it was 35.1 µM. For the same molecule, in series [8], the IC50 is 14.8 µM. Moreover, the selectivity ratio in series [2] was 210.
With `CC1=N[C@H](C)Cc2c(-c3ccc(C)cc3)ccc(O)c21`, the IC50 in series [1] was 32 µM; in series [3] it was more than 86 µM; in series [4], 39.3 µM; in series [5], more than 100 µM; in series [6] it was 437 nM; in series [7], 52 µM. In addition, in series [8], the half-inhibitory concentration (IC50) was found to be 7.12 µM. The selectivity ratio in series [2] is more than 229.
For `CC1=N[C@H](C)Cc2c(-c3ccc4ccccc4c3)ccc(O)c21`, the IC50 in series [1] is 25.4 µM; in series [3] it was 34.7 µM; in series [4] it was 16.7 µM; in series [5] it was 72.5 µM; in series [6] it was 476 nM; in series [7] it was 38.2 µM. Moreover, the 50% inhibitory concentration (IC50) in series [8] turned out to be 1.01 µM. The selectivity ratio in series [2] came out at 152.
